Measured values from ChEMBL document CHEMBL5634090, “Design of phenothiazine-based cationic amphiphilic derivatives incorporating arginine residues: Potential membrane-active broad-spectrum antimicrobials combating pathogenic bacteria in vitro and in vivo” (Eur J Med Chem, 2023).
Values after ≈ are worked out from the molar mass of the structure shown.

How the values were obtained:
Staphylococcus aureus [1] = assay: Antibacterial activity against Staphylococcus aureus ATCC 29213 by microbroth dilution assay; assay type: functional
Staphylococcus aureus [2] = assay: Antibacterial activity against methicillin resistant Staphylococcus aureus N315 by microbroth dilution assay; assay type: functional
Staphylococcus aureus [3] = assay: Antibacterial activity against methicillin resistant Staphylococcus aureus NCTC 10442 by microbroth dilution assay; assay type: functional
Escherichia coli = assay: Antibacterial activity against Escherichia coli ATCC 25922 by microbroth dilution assay; assay type: functional
Klebsiella pneumoniae [4] = assay: Antibacterial activity against Klebsiella pneumoniae ATCC 10031 by microbroth dilution assay; assay type: functional
Klebsiella pneumoniae [5] = assay: Antibacterial activity against Klebsiella pneumoniae ATCC 14581 by microbroth dilution assay; assay type: functional
Pseudomonas aeruginosa [6] = assay: Antibacterial activity against Pseudomonas aeruginosa ATCC 9027 by microbroth dilution assay; assay type: functional
[7] = Hemolytic activity in rabbit erythrocytes; assay type: toxicity, cell-based, Oryctolagus cuniculus, Erythrocyte
Staphylococcus aureus [8] = assay: Induction of resistance development in Staphylococcus aureus ATCC 29213 assessed as fold increase in MIC treated over 20 serial passages by microdilution assay; assay type: functional
Staphylococcus aureus [9] = assay: Antibacterial activity against Staphylococcus aureus ATCC 29213 assessed as log reduction in bacterial load at 4 times MIC measured after 2 hrs by time kill assay; assay type: functional
Staphylococcus aureus [10] = assay: Antibacterial activity against Staphylococcus aureus ATCC 29213 assessed as log reduction in bacterial load at 8 times MIC measured after 2 hrs by time kill assay; assay type: functional
Staphylococcus aureus [11] = assay: Antibacterial activity against Staphylococcus aureus ATCC 29213 infected in cyclophosphamide immunosuppressed keratitis mouse model assessed as log reduction in number of viable bacterial colonies at 50 mg/ml administrated tropically; assay type: functional
Pseudomonas aeruginosa [12] = assay: Antibacterial activity against Pseudomonas aeruginosa ATCC 9027 infected in cyclophosphamide immunosuppressed keratitis mouse model assessed as log reduction in number of viable bacterial colonies at 0.3 % administrated tropically; assay type: functional
Klebsiella pneumoniae [13] = assay: Antibacterial activity against Klebsiella pneumoniae ATCC 10031 assessed as log reduction in bacterial load at 8 times MIC measured after 2 hrs by time kill assay; assay type: functional
Klebsiella pneumoniae [14] = assay: Induction of resistance development in Klebsiella pneumoniae ATCC 10031 assessed as fold increase in MIC treated over 20 serial passages by microdilution assay; assay type: functional
Staphylococcus aureus [15] = assay: Inhibition of biofilm formation in Staphylococcus aureus ATCC 29213 at MIC by crystal violet staining assay relative to control; assay type: functional
Klebsiella pneumoniae [16] = assay: Inhibition of biofilm formation in Klebsiella pneumoniae ATCC 10031 at MIC by crystal violet staining assay relative to control; assay type: functional
Staphylococcus aureus [17] = assay: Antibiofilm activity against 24 hrs preformed biofilm in Staphylococcus aureus ATCC 29213 assessed as residual biomass at 4 times MIC relative to control; assay type: functional
Klebsiella pneumoniae [18] = assay: Antibiofilm activity against 24 hrs preformed biofilm in Klebsiella pneumoniae ATCC 10031 assessed as residual biomass at 4 times MIC relative to control; assay type: functional

| SMILES | MIC (Staphylococcus aureus [1]) | MIC (Staphylococcus aureus [2]) | MIC (Staphylococcus aureus [3]) | MIC (Escherichia coli) | MIC (Klebsiella pneumoniae [4]) | MIC (Klebsiella pneumoniae [5]) | MIC (Pseudomonas aeruginosa [6]) | HC50 [7] | also measured |
| --- | --- | --- | --- | --- | --- | --- | --- | --- | --- |
| CCCCCCCCCN1c2ccccc2Sc2ccc(OCC(=O)N[C@@H](CCCNC(=N)N)C(=O)N[C@@H](CCCNC(=N)N)C(=O)N[C@@H](CCCNC(=N)N)C(=O)OC)cc21 | 1.56 µg/mL (≈ 1.77 µM) | 0.78 µg/mL (≈ 0.884 µM) | 1.56 µg/mL (≈ 1.77 µM) | 3.12 µg/mL (≈ 3.54 µM) | 12.5 µg/mL (≈ 14.2 µM) | 12.5 µg/mL (≈ 14.2 µM) | 12.5 µg/mL (≈ 14.2 µM) | > 200 µg/mL |  |
| CCCCCCCCCN1c2ccccc2Sc2ccc(OCC(=O)N[C@@H](CCCNC(=N)N)C(=O)N[C@@H](CCCNC(=N)N)C(=O)OC)cc21 | 1.56 µg/mL (≈ 2.15 µM) | 1.56 µg/mL (≈ 2.15 µM) | 1.56 µg/mL (≈ 2.15 µM) | 1.56 µg/mL (≈ 2.15 µM) | 3.12 µg/mL (≈ 4.3 µM) | 6.25 µg/mL (≈ 8.61 µM) | 50 µg/mL (≈ 68.9 µM) | > 200 µg/mL |  |
| CCn1cc(C(=O)O)c(=O)c2cc(F)c(N3CCNCC3)cc21 [NORFLOXACIN] | 1.56 µg/mL (≈ 4.89 µM) |  |  |  |  |  |  |  | fold change (FC) (Staphylococcus aureus [8]): 1024 |
| CN[C@H](CC(C)C)C(=O)N[C@H]1C(=O)N[C@@H](CC(N)=O)C(=O)N[C@H]2C(=O)N[C@H]3C(=O)N[C@H](C(=O)N[C@H](C(=O)O)c4cc(O)cc(O)c4-c4cc3ccc4O)[C@H](O)c3ccc(c(Cl)c3)Oc3cc2cc(c3O[C@@H]2O[C@H](CO)[C@@H](O)[C@H](O)[C@H]2O[C@H]2C[C@](C)(N)[C@H](O)[C@H](C)O2)Oc2ccc(cc2Cl)[C@H]1O [VANCOMYCIN] | 0.78 µg/mL (≈ 0.538 µM) | 1.56 µg/mL (≈ 1.08 µM) | 1.56 µg/mL (≈ 1.08 µM) |  |  |  |  |  | log(activity) (Staphylococcus aureus [9]): 0.03; log(activity) (Staphylococcus aureus [10]): 0.15; log(activity) (Staphylococcus aureus [11]): 5.2 |
| CCCCCOc1ccc2c(c1)N(CCCCNC(=N)N)c1ccccc1S2 | 1.56 µg/mL (≈ 3.91 µM) | 1.56 µg/mL (≈ 3.91 µM) | 1.56 µg/mL (≈ 3.91 µM) | 6.25 µg/mL (≈ 15.7 µM) | 6.25 µg/mL (≈ 15.7 µM) | 25 µg/mL (≈ 62.7 µM) | > 50 µg/mL | > 200 µg/mL |  |
| CCCCCCCCCN1c2ccccc2Sc2ccc(OCC(=O)N[C@@H](CCCNC(=N)N)C(=O)N[C@@H](CCCNC(=N)N)C(N)=O)cc21 | 1.56 µg/mL (≈ 2.19 µM) | 1.56 µg/mL (≈ 2.19 µM) | 0.78 µg/mL (≈ 1.1 µM) | 1.56 µg/mL (≈ 2.19 µM) | 3.12 µg/mL (≈ 4.4 µM) | 3.12 µg/mL (≈ 4.4 µM) | > 50 µg/mL | > 200 µg/mL |  |
| NC[C@H]1O[C@H](O[C@H]2[C@H](O)[C@@H](O[C@H]3O[C@H](CO)[C@@H](O)[C@H](N)[C@H]3O)[C@H](N)C[C@@H]2N)[C@H](N)C[C@@H]1O [TOBRAMYCIN] |  |  |  |  |  |  |  |  | log(activity) (Pseudomonas aeruginosa [12]): 4.71 |
| CCCCCN1c2ccccc2Sc2ccc(OCC(=O)N[C@@H](CCCNC(=N)N)C(=O)OC)cc21 | 12.5 µg/mL (≈ 24.3 µM) | 3.12 µg/mL (≈ 6.08 µM) | 6.25 µg/mL (≈ 12.2 µM) | > 50 µg/mL |  |  |  | > 200 µg/mL |  |
| CC(C)=CCOc1ccc2c(c1)N(CCCCNC(=N)N)c1ccccc1S2 | 1.56 µg/mL (≈ 3.93 µM) | 0.78 µg/mL (≈ 1.97 µM) | 0.78 µg/mL (≈ 1.97 µM) | > 50 µg/mL |  |  |  | > 200 µg/mL |  |
| O=C(O)c1cn(C2CC2)c2cc(N3CCNCC3)c(F)cc2c1=O [CIPROFLOXACIN] |  |  |  |  | 0.195 µg/mL (≈ 0.589 µM) | 0.195 µg/mL (≈ 0.589 µM) | 0.195 µg/mL (≈ 0.589 µM) |  | log(activity) (Klebsiella pneumoniae [13]): 2.27; fold change (FC) (Klebsiella pneumoniae [14]): 128 |
| CCCCCOc1ccc2c(c1)Nc1ccccc1S2 | > 50 µg/mL | > 50 µg/mL | > 50 µg/mL | > 50 µg/mL |  |  |  | > 200 µg/mL |  |
| CC[C@H](C)[C@H](NC(=O)CN)C(=O)NCC(=O)N[C@@H](C)C(=O)N[C@H](C(=O)N[C@@H](CC(C)C)C(=O)N[C@@H](CCCCN)C(=O)N[C@H](C(=O)N[C@@H](CC(C)C)C(=O)N[C@H](C(=O)N[C@H](C(=O)NCC(=O)N[C@@H](CC(C)C)C(=O)N1CCC[C@H]1C(=O)N[C@@H](C)C(=O)N[C@@H](CC(C)C)C(=O)N[C@H](C(=O)N[C@@H](CO)C(=O)N[C@@H](Cc1c[nH]c2ccccc12)C(=O)N[C@H](C(=O)N[C@@H](CCCCN)C(=O)N[C@@H](CCCNC(=N)N)C(=O)N[C@@H](CCCCN)C(=O)N[C@@H](CCCNC(=N)N)C(=O)N[C@@H](CCC(N)=O)C(=O)N[C@@H](CCC(N)=O)C(N)=O)[C@@H](C)CC)[C@@H](C)CC)[C@@H](C)O)[C@@H](C)O)C(C)C)C(C)C [MELITTIN] |  |  |  |  | 6.25 µg/mL (≈ 2.2 µM) | 6.25 µg/mL (≈ 2.2 µM) |  |  | inhibition (INH) (Staphylococcus aureus [15]): >90%; inhibition (INH) (Klebsiella pneumoniae [16]): >90%; Activity (Staphylococcus aureus [17]): >10%; Activity (Klebsiella pneumoniae [18]): <10% |
| CCCCCOc1ccc2c(c1)N(CCCCN)c1ccccc1S2 | 3.12 µg/mL (≈ 8.76 µM) | 3.12 µg/mL (≈ 8.76 µM) | 3.12 µg/mL (≈ 8.76 µM) | 25 µg/mL (≈ 70.1 µM) |  |  |  | > 200 µg/mL |  |
| CCCCCCCN1c2ccccc2Sc2ccc(OCC(=O)N[C@@H](CCCNC(=N)N)C(=O)N[C@@H](CCCNC(=N)N)C(=O)OC)cc21 | 1.56 µg/mL (≈ 2.24 µM) | 1.56 µg/mL (≈ 2.24 µM) | 1.56 µg/mL (≈ 2.24 µM) | 6.25 µg/mL (≈ 8.96 µM) | 25 µg/mL (≈ 35.8 µM) | 25 µg/mL (≈ 35.8 µM) | > 50 µg/mL | > 200 µg/mL |  |
| Oc1ccc2c(c1)Nc1ccccc1S2 | > 50 µg/mL | > 50 µg/mL | > 50 µg/mL | > 50 µg/mL |  |  |  | > 200 µg/mL |  |
| CCCCCOc1ccc2c(c1)N(CCCCCCN(CC)CC)c1ccccc1S2 | 3.12 µg/mL (≈ 7.09 µM) | 1.56 µg/mL (≈ 3.54 µM) | 3.12 µg/mL (≈ 7.09 µM) | > 50 µg/mL |  |  |  | > 200 µg/mL |  |
| CCCCCCCCCN1c2ccccc2Sc2ccc(OCC(=O)OCC)cc21 | > 50 µg/mL | > 50 µg/mL | > 50 µg/mL | > 50 µg/mL |  |  |  | > 200 µg/mL |  |
| CCCCCCCN1c2ccccc2Sc2ccc(OCC(=O)N[C@@H](CCCNC(=N)N)C(=O)N[C@@H](CCCNC(=N)N)C(=O)N[C@@H](CCCNC(=N)N)C(=O)OC)cc21 | 0.78 µg/mL (≈ 0.913 µM) | 0.78 µg/mL (≈ 0.913 µM) | 0.78 µg/mL (≈ 0.913 µM) | 12.5 µg/mL (≈ 14.6 µM) |  |  |  | > 200 µg/mL |  |
